Reference: US6268478A, “Intracellular vitamin D binding protein” (Cedars-Sinai Medical Center, priority 1997, dated 2001)

Molecular target: IDBP (Saguinus oedipus, UniProt Q9N1U2)
Test: Competitive displacement of [3H]25-OHD3 from IDBP in unfractionated 100,000×g supernatant extracts of B95-8 cells (competitive protein binding assay, dextran-coated charcoal)
Parameters: post-nuclear 100,000xg supernatant of B95-8 marmoset lymphoblasts and partly purified column fractions; species or system Callithrix jacchus (common marmoset)
Conditions: for ability to competitively displace [3H]25-OHD3 binding (FIG. 1A): 100 nM competitor, 2 nM [3H]25-OHD3; for RBI (Relative Binding Index): relative ability of maximally effective concentration to displace [3H]25-OHD3, 25-OHD3 assigned 100, unfractionated 100,000×g supernatant of B95-8 cells; for binding / displacement of [3H]25-OHD3 by vitamin D2 metabolites and synthetic analogues (FIG. 2B): unfractionated B95-8 extracts, 4 nM [3H]25-OHD3; for competition of non-vitamin D steroids and bioactive lipids with 25-OHD3 for binding: crude post-nuclear / 100,000×g supernatant extracts of B95-8 cells
Excerpt: Culture and Extraction of B95-8 Cells. The B-lymphoblastoid cell line B95-8 was obtained from the American Type Culture Collection (ATCC, Manassas, Va.). This cell line was established by EBV transformation of blood leukocytes from the vitamin D-resistant new world primate, Callithrix jacchus (common marmoset). The cell line was maintained in RPMI-1640 medium (Irvine Scientific, Irvine, Calif.) routinely supplemented with 10% fetal calf serum (FCS; Gemini BioProducts, Calabasas, Calif.), 100 units/ml penicillin, 100 μg/ml streptomycin, 2 mM L-glutamine (both from Gibco-BRL, Grand Island, N.Y.) in an atmosphere of 95% air-5% CO2.
Confluent cultures were harvested by agitation to dislodge clumps of lymphoblasts that were weakly adherent to the plastic flask. Harvested cells were pelleted and washed twice in ice cold phosphate-buffered saline (PBS; 20 mM Na2 HPO4 and 150 mM NaCl, pH 7.2). The pelleted cells were then resuspended in ETD buffer (1 mM EDTA, 10 mM Tris-HCl, 5 mM dithiothreitol, pH 7.4) containing 1 mM phenylmethylsulfonylflouride and homogenized by Polytron on ice in five 15-second bursts. Nuclei with associated nuclear steroid receptor proteins, were pelleted at 4,000×g for 30 minutes at 4° C. The post-nuclear supernatant of this spin was then subjected to high-speed centrifugation at 100,000×g for 1 hour at 4° C. The resulting "100,000×g supernatant" was either aliquoted and stored at […] for further study, used in competitive ligand binding analyses, or subjected to further purification as described below in Example II.
Ligand Binding Analyses. The ability of the unfractionated 100,000×g supernatant extracts of B95-8 cells and individual column […] of increasing concentrations of radioinert compounds (see Table I) was performed by competitive protein binding assay as previously described in Gacad et al. Bone Min. Res. 8:27-35 (1993).
[…] […] […] […] The binding assay conditions were the same as those stated above except that specific binding was determined in ETD-0.3 M Na2 HPO4 buffer (pH 6.8).

Sequence of IDBP (Q9N1U2 whole entry): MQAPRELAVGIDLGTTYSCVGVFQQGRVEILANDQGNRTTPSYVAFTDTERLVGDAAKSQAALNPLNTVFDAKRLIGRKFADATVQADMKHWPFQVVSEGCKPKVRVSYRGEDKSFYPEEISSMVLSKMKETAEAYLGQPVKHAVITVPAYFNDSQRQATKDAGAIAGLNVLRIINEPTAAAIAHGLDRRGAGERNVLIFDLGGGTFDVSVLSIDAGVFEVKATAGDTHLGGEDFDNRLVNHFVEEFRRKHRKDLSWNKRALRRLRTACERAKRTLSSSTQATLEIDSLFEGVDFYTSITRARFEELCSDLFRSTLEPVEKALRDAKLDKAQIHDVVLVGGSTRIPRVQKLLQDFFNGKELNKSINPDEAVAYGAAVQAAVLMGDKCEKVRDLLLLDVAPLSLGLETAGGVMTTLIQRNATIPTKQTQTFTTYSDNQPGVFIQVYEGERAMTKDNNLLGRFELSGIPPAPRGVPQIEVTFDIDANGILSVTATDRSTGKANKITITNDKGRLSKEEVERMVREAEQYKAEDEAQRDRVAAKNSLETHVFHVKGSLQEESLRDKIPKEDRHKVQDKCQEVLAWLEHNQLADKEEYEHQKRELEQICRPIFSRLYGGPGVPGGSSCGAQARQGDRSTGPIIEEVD

SMILES	RBI (Relative Binding Index)	also measured
C=C1/C(=C\C=C2/CCC[C@]3(C)[C@@H]([C@H](C)CCC(O)C(C)(C)O)CC[C@@H]23)C[C@@H](O)CC1O (stereo partly drawn) [1,24,25-(OH)3D3]	36	ability to competitively displace [3H]25-OHD3 binding (FIG. 1A): significantly decreased effective competitive binding; displacement of 25-OHD3 (competitor at 10^-7 M, 0.1 µM): 20%; displacement of 25-OHD3 at lower concentrations (competitor concentrations below 10^-7 M): no apparent displacement at lower concentrations
C=C1/C(=C\C=C2/CCC[C@]3(C)[C@@H]([C@H](C)/C=C/[C@H](C)C(C)(C)O)CC[C@@H]23)C[C@@H](O)C[C@@H]1O [1,25-(OH)2D2, 1,25-dihydroxyvitamin D2]	35	binding / displacement of [3H]25-OHD3 by vitamin D2 metabolites and synthetic analogues (FIG. 2B): bound in unfractionated extracts equivalently to 25-OHD3 and 1,25-(OH)^2 D3
C=C1/C(=C\C=C2/CCC[C@]3(C)[C@@H]([C@H](C)CCCC(C)C)CC[C@@H]23)C[C@@H](O)C[C@@H]1O [1-OHD3]	0	ability to competitively displace [3H]25-OHD3 binding (FIG. 1A): incapable of displacing [^3 H]25-OHD3
C[C@]12CCC(=O)C[C@@H]1CC[C@@H]1[C@@H]2CC[C@]2(C)[C@@H](O)CC[C@@H]12 [5-Dihydroxytestosterone]	0	competition of non-vitamin D steroids and bioactive lipids with 25-OHD3 for binding: none of the six steroid precursor molecules, glucocorticoids, mineralocorticoids, or the major intracellular metabolite of testosterone, 5-dihydrotestosterone, were capable ligands
CC(C)CCC[C@@H](C)[C@H]1CC[C@H]2C3=CC=C4C[C@@H](O)CC[C@]4(C)[C@H]3CC[C@]12C [7-Dehydrocholesterol]	0	–
CC1=C(/C=C/C(C)=C\C=C\C(C)=C\C(=O)O)C(C)(C)CCC1 [9-cis Retinoic acid]	0	–
C[C@]12CC[C@@H]3c4ccc(O)cc4CC[C@H]3[C@@H]1CC[C@@H]2O [17β-Estradiol]	33	competition of non-vitamin D steroids and bioactive lipids with 25-OHD3 for binding: competitively displaces [^3 H]25-OHD3
C=C1CC[C@H](O)C/C1=C/C=C1\CCC[C@]2(C)[C@@H]([C@H](C)CCC(O)C(C)(C)O)CC[C@@H]12 (stereo partly drawn) [24,25-(OH)2D3]	72	ability to competitively displace [3H]25-OHD3 binding (FIG. 1A): roughly equivalent in their ability to competitively inhibit
C=C1CC[C@H](O)C/C1=C/C=C1\CCC[C@]2(C)[C@@H]([C@H](C)CCCC(C)(O)CO)CC[C@@H]12 (stereo partly drawn) [25,26-(OH)2D3]	70	ability to competitively displace [3H]25-OHD3 binding (FIG. 1A): roughly equivalent in their ability to competitively inhibit
C[C@H](CCCC(C)(C)O)[C@H]1CC[C@H]2[C@@H]3CC=C4C[C@@H](O)CC[C@]4(C)[C@H]3CC[C@]12C [25-Hydroxycholesterol]	0	competition of non-vitamin D steroids and bioactive lipids with 25-OHD3 for binding: none of these evaluated compounds were able to compete with 25-OHD3 for binding
C=C1CC[C@H](O)C/C1=C/C=C1\CCC[C@]2(C)[C@@H]([C@H](C)/C=C/[C@H](C)C(C)(C)O)CC[C@@H]12 [25-OHD2, 25-hydroxy vitamin D2]	100	binding / displacement of [3H]25-OHD3 by vitamin D2 metabolites and synthetic analogues (FIG. 2B): bound in unfractionated extracts equivalently to 25-OHD3 and 1,25-(OH)^2 D3
C[C@]12CCC(=O)C=C1CC[C@@H]1[C@@H]2[C@@H](O)C[C@]2(C=O)[C@@H](C(=O)CO)CC[C@@H]12 [Aldosterone]	0	–
CC1=C(/C=C/C(C)=C/C=C/C(C)=C/C(=O)O)C(C)(C)CCC1 [All-trans Retinoic acid]	0	–
C[C@]12CCC(=O)C=C1CC[C@@H]1[C@@H]2CC[C@]2(C)C(=O)CC[C@@H]12 [Androstendione]	0	–
CCCCC/C=C\C/C=C\C/C=C\C/C=C\CCCC(=O)O [Arachidonic acid]	0	–
C=C1/C(=C\C=C2/CCC[C@]3(C)[C@@H]([C@H](C)/C=C/[C@@H](O)C4CC4)CC[C@@H]23)C[C@@H](O)C[C@@H]1O [Calcipotriol (MC903), Calcipotriol]	0	binding / displacement of [3H]25-OHD3 by vitamin D2 metabolites and synthetic analogues (FIG. 2B): none of the C-1-hydroxylated nonhypercalcemic analogues MC903, EB1089 and KH1060 (FIG. 2A) were able to displace [^3 H]25-OHD3 binding

SMILES	RBI (Relative Binding Index)	also measured
CC(C)CCC[C@@H](C)[C@H]1CC[C@H]2[C@@H]3CC=C4C[C@@H](O)CC[C@]4(C)[C@H]3CC[C@]12C [Cholesterol]	0	–
C[C@]12C[C@H](O)[C@H]3[C@@H](CCC4=CC(=O)CC[C@@]43C)[C@@H]1CC[C@@H]2C(=O)CO [Corticosterone (B), Corticosterone]	0	–
C[C@]12CCC(=O)C=C1CC[C@@H]1[C@@H]2C(=O)C[C@@]2(C)[C@H]1CC[C@]2(O)C(=O)CO [Cortisone]	0	–
C[C@]12CC[C@H](OS(=O)(=O)O)CC1=CC[C@@H]1[C@@H]2CC[C@]2(C)C(=O)CC[C@@H]12 [DHEAS]	0	–
C[C@]12CC[C@H](O)CC1=CC[C@@H]1[C@@H]2CC[C@]2(C)C(=O)CC[C@@H]12 [DHEA]	0	–
C[C@]12CC[C@H]3[C@@H](CCC4=CC(=O)CC[C@@]43C)[C@@H]1CC[C@@H]2C(=O)CO [Deoxycorticosterone (DOC), Deoxycorticosterone]	0	–
C[C@@H]1C[C@H]2[C@@H]3CCC4=CC(=O)C=C[C@]4(C)[C@@]3(F)[C@@H](O)C[C@]2(C)[C@@]1(O)C(=O)CO [Dexamethasone]	0	–
CC(C)[C@@H](C)/C=C/[C@@H](C)[C@H]1CC[C@H]2/C(=C/C=C3\C[C@@H](O)CC[C@@H]3C)CCC[C@]12C [Dihydrotachysterol]	0	ability to competitively displace [3H]25-OHD3 binding (FIG. 1A): incapable of displacing [^3 H]25-OHD3
C=C1/C(=C\C=C2/CCC[C@]3(C)[C@@H]([C@H](C)/C=C/C=C/C(O)(CC)CC)CC[C@@H]23)C[C@@H](O)C[C@@H]1O [EB1089]	0	binding / displacement of [3H]25-OHD3 by vitamin D2 metabolites and synthetic analogues (FIG. 2B): none of the C-1-hydroxylated nonhypercalcemic analogues MC903, EB1089 and KH1060 (FIG. 2A) were able to displace [^3 H]25-OHD3 binding
C[C@]12CCC(=O)C=C1CC[C@@H]1[C@@H]2[C@@H](O)C[C@@]2(C)[C@H]1CC[C@]2(O)C(=O)CO [Hydrocortisone]	0	–
C=C1/C(=C\C=C2/CCC[C@]3(C)[C@@H]([C@@H](C)OCCCC(O)(CC)CC)CC[C@@H]23)C[C@@H](O)C[C@@H]1O [KH1060]	0	binding / displacement of [3H]25-OHD3 by vitamin D2 metabolites and synthetic analogues (FIG. 2B): none of the C-1-hydroxylated nonhypercalcemic analogues MC903, EB1089 and KH1060 (FIG. 2A) were able to displace [^3 H]25-OHD3 binding
CCCCC[C@H](O)/C=C/[C@H]1[C@H](O)CC(=O)[C@@H]1C/C=C\CCCC(=O)O [PGE2]	0	–
CCCCC[C@H](O)/C=C/[C@@H]1[C@@H](C/C=C\CCCC(=O)O)[C@@H](O)C[C@H]1O [PGF2alpha]	0	–
CC(=O)[C@H]1CC[C@H]2[C@@H]3CC=C4C[C@@H](O)CC[C@]4(C)[C@H]3CC[C@]12C [Pregnenolone]	0	–
CC(=O)[C@H]1CC[C@H]2[C@@H]3CCC4=CC(=O)CC[C@]4(C)[C@H]3CC[C@]12C [Progesterone]	19	competition of non-vitamin D steroids and bioactive lipids with 25-OHD3 for binding: competitively displaces [^3 H]25-OHD3
CC#C[C@]1(O)CC[C@H]2[C@@H]3CCC4=CC(=O)CCC4=C3[C@@H](c3ccc(N(C)C)cc3)C[C@@]21C [RU486]	0	–
